# Data from patent US20070032418A1, “Small-molecule inhibitors of angiogenin and rnases and in vivo and in vitro methods of using same” (Ambion, Inc, priority 2003, published 2007).
# “Also recorded” adds a separate entry of the source. Read-outs that look alike come from different tables or passages of the source.
# Key:
# angiogenin (ANG) = angiogenin (ANG) (Homo sapiens, UniProt P03950); assay: Inhibition of ANG ribonucleolytic activity, HPLC assay of oligonucleotide cleavage; type: biochemical
# angiogenin (ANG), sequence (P03950 25-147): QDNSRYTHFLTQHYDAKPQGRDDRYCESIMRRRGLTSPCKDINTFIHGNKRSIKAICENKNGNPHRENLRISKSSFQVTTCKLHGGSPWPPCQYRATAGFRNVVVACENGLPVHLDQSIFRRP
# Protocol: Reaction mixtures with and without test compounds were chromatographed on a Mono Q anion-exchange column with an NaCl gradient in 10 mM Tris, pH 8. […] This information was used to calculate kcat/Km values, which were then fitted to the equation (kcat/Km)i=(kcat/Km)0/[…], where (kcat/Km)i and (kcat/Km)0 are defined as the values in the presence and absence of inhibitor, respectively, and [I] is defined as the inhibitor concentration. At least four concentrations (in a range of about 10 μM-above 100 μM) were used in the final hit confirmation in order to distinguish all true hits.
# Chemical structures of selected compounds are shown in these Tables and in FIGS. 4 and 5.
# [1] = biological target: T1, bovine pancreatic RNase A (Bos taurus, UniProt P61823); assay: Inhibition of bovine pancreatic RNase A (specificity versus ANG); type: biochemical
# T1 sequence (P61823 27-150): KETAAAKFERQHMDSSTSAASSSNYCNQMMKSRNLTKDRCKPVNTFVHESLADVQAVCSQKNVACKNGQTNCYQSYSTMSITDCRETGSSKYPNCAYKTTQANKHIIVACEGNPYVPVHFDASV
# E. coli RNase I = E. coli RNase I (Escherichia coli, UniProt P21338); assay: Intactness of total RNA challenged with purified RNase; type: biochemical; conditions: 100 uM inhibitor; E. coli RNase I 7 ng/ul; 100 ng/ul mouse liver total RNA, 23° C., 4 min
# E. coli RNase I, sequence (P21338 24-268): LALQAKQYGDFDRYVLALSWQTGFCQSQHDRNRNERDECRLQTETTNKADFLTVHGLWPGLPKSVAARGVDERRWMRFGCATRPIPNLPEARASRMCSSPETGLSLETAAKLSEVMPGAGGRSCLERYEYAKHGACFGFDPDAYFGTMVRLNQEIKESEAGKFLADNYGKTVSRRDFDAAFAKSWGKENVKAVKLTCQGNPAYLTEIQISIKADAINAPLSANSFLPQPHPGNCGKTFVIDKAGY
# MMLV RT RNase H = MMLV RT RNase H (Moloney murine leukemia virus, UniProt P03355); assay: Inhibition of RT-based RNase H cleavage of RNA:DNA hybrid; type: biochemical; conditions: for % Cleavage: no inhibitor: 36%, 5 min at 37 C
# Protocol: As described above, Chembridge compound #467929 offered protection from several RNA-specific endonucleolytic activities. […] A 20-mer DNA oligonucleotide was asymmetrically annealed to a 1500 base synthetic RNA to create an RNA:DNA duplex substrate for RNase H. Reactions were initiated with 10 U of MMLV RT in 1×RT buffer (50 mM TrisCl pH 8.3, 75 mM KCl, 3 mM MgCl2, 5 mM DTT) containing 500 ng/ul RNA:DNA hybrid. All reactions contained 5% DMSO either with or without the small molecule RNase inhibitor. Samples were incubated for 5 min at 37 C, and quenched with EDTA. Products were resolved on an RNA LabChip. Cleavage products were observed as two equally represented RNA species of 1000 and 500 bases. Product length and yield were determined using the 2100 BioAnalyzer software (Agilent). Table 4 details the level of inhibition of MMLV RT RNase H that is observed as a function of the concentration of compounds 467929 and 227726.
# [2] = system: PC-3 human prostate tumor cells; assay: PC-3 tumor formation in athymic mice; type: in vivo; conditions: for Percentage of Tumor-Bearing Mice, day 14 / Percentage of Tumor-Bearing Mice, day 17 / Percentage of Tumor-Bearing Mice, day 21 / Percentage of Tumor-Bearing Mice, day 24 / Percentage of Tumor-Bearing Mice, day 32 / Percentage of Tumor-Bearing Mice, day 35 / Time of appearance of tumors (Example 3, Table 1): PC-3 s.c.; for Time of appearance of tumors (Example 3, Table 1): treatment s.c. 6 times per week
# Protocol: Compound NCI-65828 was identified by HTS as an ANG inhibitor. […] Each compound was administered 6 times per week, in doses of 40 μg, 8 μg, and 1.6 μg (about 2, 0.4 and 0.08 mg/kg/day). The compound was dissolved in DMSO, and control mice received a corresponding volume of DMSO (4%, 0.8% and 0%). Another control group received saline.
# Another in vivo mouse experiment was performed using 8 or 12 mice per group. The experimental group was administered PC-3 cells and NCI-65828, as intraperitoneal injections (40 μg and 8 μg). A control group of mice was administered PC-3 cells and a related compound that was known to be ineffective at inhibiting ANG enzymatic activity. Mice were evaluated for number of animals that remained tumor free as a function of time, at intervals of 3 days from days 14-42 following the initial injection.
# Concentrated stocks of inhibitors were prepared in dimethylsulfoxide (DMSO), and the inhibitors were diluted into phosphate-buffered saline (PBS); the final DMSO concentration for the 40 μg and 20 μg doses was 4% in PBS, and that for the 8 μg and 4 μg doses was 0.8% in PBS. Statistical significance (P values) was determined from Mantel-Cox tests performed on Kaplan-Meier survivor functions. Results for inhibitor-treated groups were compared to results obtained with the appropriate DMSO control groups. A positive control group of mice, administered antisense DNA specific for the ANG gene in PBS (no DMSO), was also included. ANG antisense DNA was shown previously to be extremely effective in this tumor model.
# Tumor cells from a human prostate cancer (PC-3) were injected subcutaneously (s.c.) in the shoulder of 6-7 week old athymic (nude) mice on day 0. Treatment with the indicated amount of inhibitor (in 100 μL) was given subcutaneously in the same area as the cells, 6 times per week, with the first injection 5-10 minutes prior to injection of the cells. The total dosage was 0.4 mg to 2 mg per kg per day.
# [3] = system: HT-29 human colonic adenocarcinoma cells; assay: HT-29 tumor formation in athymic mice; type: in vivo; conditions: local treatment s.c. 40 μg/day, 6×/week
# Protocol: Mice were examined 2×/week for palpable tumors. Treatment doses: 40 μg/day (A and C); 8 μg/day (B). n=8 for all groups except the vehicle controls in A and B, where n=12.
# [4] = 20 mM Hepes, 100 mM NaCl, pH 7.0, 37° C., read-out: Ki for inhibition of the ribonucleolytic activity of angiogenin
# [5] = inhibition of ANG-catalyzed cleavage of an RNA oligonucleotide, 20 mM Hepes, 100 mM NaCl, 37° C., read-out: KI
compound,measurement,setting,value
O=C(Nc1ccc(Cc2ccc(NC(=O)c3ccc(-c4ccccc4)cc3)c(C(=O)O)c2)cc1C(=O)O)c1ccc(-c2ccccc2)cc1 [CB-473872],Ki,angiogenin (ANG); [4],20 µM
same,Tighter binding to ANG than to RNase A,[1],2.3 fold
Benzopurpurin B,Protection of total RNA from degradation,E. coli RNase I,significant protection from RNA degradation
same,Ki,angiogenin (ANG); [4],5 µM
same,Ki,angiogenin (ANG); [5],5 µM
"O=C(N/N=C(\c1ccccc1)c1ccncc1)c1ccccc1 [NCI-227726, N′-[phenyl(4-pyridinyl)methylene] benzohydrazide, reference compound]",% Cleavage,MMLV RT RNase H; inhibitor 100 μM,45%
same,% Cleavage,MMLV RT RNase H; inhibitor 524 μM,43%
same,% Cleavage,MMLV RT RNase H; inhibitor 1000 μM,47%
O=[N+]([O-])c1cc(/N=N/c2c(O)ccc3cc(S(=O)(=O)O)ccc23)c(O)c([N+](=O)[O-])c1 [NCI-65820],Ki,angiogenin (ANG); read-out: KI,25 µM
same,Tighter binding to ANG than to RNase A,[1],1.5 fold
"Nc1ccc(/N=N/c2ccc(-c3ccc(O)cc3)cc2)c2ccc(S(=O)(=O)O)cc12 [NCI-65828, 8-amino-5-(4′-hydroxybiphenyl-4-ylazo)naphthalene-2-sulfonate]",Appearance of tumors (FIGS. 1A and 1B),"[2]; PC-3, 40 μg and 8 μg, days 14-42, vs controls",delay or prevention; also recorded: delayed the appearance of tumors
same,Rate of tumor development (preliminary test),"[2]; PC-3, s.c. 6 times per week, doses of 40 μg, 8 μg and 1.6 μg, vs control groups",developed tumors at a slower rate
same,"Percentage of Tumor-Bearing Mice, day 14",[2]; 8 μg s.c. 6 times per week,0%
same,"Percentage of Tumor-Bearing Mice, day 17",[2]; 8 μg s.c. 6 times per week,38%
same,"Percentage of Tumor-Bearing Mice, day 21",[2]; 8 μg s.c. 6 times per week,50%
same,"Percentage of Tumor-Bearing Mice, day 24",[2]; 8 μg s.c. 6 times per week,100%
same,"Percentage of Tumor-Bearing Mice, day 32",[2]; 8 μg s.c. 6 times per week,100%
same,"Percentage of Tumor-Bearing Mice, day 35",[2]; 8 μg s.c. 6 times per week,100%
same,"Percentage of Tumor-Bearing Mice, day 14",[2]; 40 μg s.c. 6 times per week,0%
same,"Percentage of Tumor-Bearing Mice, day 17",[2]; 40 μg s.c. 6 times per week,25%
same,"Percentage of Tumor-Bearing Mice, day 21",[2]; 40 μg s.c. 6 times per week,50%
same,"Percentage of Tumor-Bearing Mice, day 24",[2]; 40 μg s.c. 6 times per week,100%
same,"Percentage of Tumor-Bearing Mice, day 32",[2]; 40 μg s.c. 6 times per week,100%
same,"Percentage of Tumor-Bearing Mice, day 35",[2]; 40 μg s.c. 6 times per week,100%
same,"Time of appearance of tumors (Example 3, Table 1)",[2],delayed considerably the time of appearance of tumors
same,Formation of tumors (FIG. 1C),[3],delay or prevention; also recorded: significantly delayed the formation of tumors
same,Ki,angiogenin (ANG); [4],81 µM
same,Ki,angiogenin (ANG); [5],81 µM
Nc1ccc(/N=N/c2ccc(-c3ccc(O)cc3)cc2)c2ccc(S(=O)(=O)O)cc12 [Tyger-65828],"Percentage of Tumor-Bearing Mice, day 14",[2]; 4 μg s.c. 6 times per week,8%
same,"Percentage of Tumor-Bearing Mice, day 17",[2]; 4 μg s.c. 6 times per week,42%
same,"Percentage of Tumor-Bearing Mice, day 21",[2]; 4 μg s.c. 6 times per week,67%
same,"Percentage of Tumor-Bearing Mice, day 24",[2]; 4 μg s.c. 6 times per week,100%
same,"Percentage of Tumor-Bearing Mice, day 32",[2]; 4 μg s.c. 6 times per week,100%
same,"Percentage of Tumor-Bearing Mice, day 35",[2]; 4 μg s.c. 6 times per week,100%
same,"Percentage of Tumor-Bearing Mice, day 14",[2]; 8 μg s.c. 6 times per week,0%
same,"Percentage of Tumor-Bearing Mice, day 17",[2]; 8 μg s.c. 6 times per week,45%
same,"Percentage of Tumor-Bearing Mice, day 21",[2]; 8 μg s.c. 6 times per week,55%
same,"Percentage of Tumor-Bearing Mice, day 24",[2]; 8 μg s.c. 6 times per week,82%
same,"Percentage of Tumor-Bearing Mice, day 32",[2]; 8 μg s.c. 6 times per week,91%
same,"Percentage of Tumor-Bearing Mice, day 35",[2]; 8 μg s.c. 6 times per week,100%
same,"Percentage of Tumor-Bearing Mice, day 14",[2]; 20 μg s.c. 6 times per week,0%
same,"Percentage of Tumor-Bearing Mice, day 17",[2]; 20 μg s.c. 6 times per week,25%
same,"Percentage of Tumor-Bearing Mice, day 21",[2]; 20 μg s.c. 6 times per week,33%
same,"Percentage of Tumor-Bearing Mice, day 24",[2]; 20 μg s.c. 6 times per week,92%
same,"Percentage of Tumor-Bearing Mice, day 32",[2]; 20 μg s.c. 6 times per week,100%
same,"Percentage of Tumor-Bearing Mice, day 35",[2]; 20 μg s.c. 6 times per week,100%
same,"Percentage of Tumor-Bearing Mice, day 14",[2]; 40 μg s.c. 6 times per week,8%
same,"Percentage of Tumor-Bearing Mice, day 17",[2]; 40 μg s.c. 6 times per week,33%
same,"Percentage of Tumor-Bearing Mice, day 21",[2]; 40 μg s.c. 6 times per week,33%
same,"Percentage of Tumor-Bearing Mice, day 24",[2]; 40 μg s.c. 6 times per week,83%
same,"Percentage of Tumor-Bearing Mice, day 32",[2]; 40 μg s.c. 6 times per week,92%
same,"Percentage of Tumor-Bearing Mice, day 35",[2]; 40 μg s.c. 6 times per week,100%
same,"Time of appearance of tumors (Example 3, Table 1)",[2],delayed considerably the time of appearance of tumors
same,Ki for inhibition of the ribonucleolytic activity of angiogenin,"angiogenin (ANG); 20 mM Hepes, 100 mM NaCl, pH 7.0, 37° C.",indistinguishable from that of the NCI compound
O=C(Nc1ccc(Cc2ccc(NC(=O)c3cccc([N+](=O)[O-])c3)c(C(=O)O)c2)cc1C(=O)O)c1cccc([N+](=O)[O-])c1 [CB-467929],Ki,angiogenin (ANG); [4],24 µM
same,IC50,MMLV RT RNase H,~20 µM
same,% Cleavage,MMLV RT RNase H; inhibitor 8 μM,42%
same,% Cleavage,MMLV RT RNase H; inhibitor 40 μM,8%
